Experimental data reported in US20230166255A1, “Methods And Devices For Detection Of Anticoagulants In Plasma And Whole Blood” (Massachusetts Institute of Technology, priority 2017, published 2023).
Read-outs that look alike come from different tables or passages of the source. Values belong to the compound of their own block, whether it stands above or below them.

Tests used:
FIIa = FIIa (Homo sapiens, UniProt P00734)
Description: (§1) Clot detection agents can include fluorescent labeled fibrinogen, magnets, beads (may be fluorescent or colored) • b) Load into microfluidic device • i. See, e.g., FIGS. 1A-1D, 2A and 2B for examples of input loading configuration and order • c) Temperature control • i. Room temperature • ii. May increase up to 37° C.
(§2) The time it takes for each of the combinations to form a clot is then plotted. […] Concentration of the agonist (FXa for FIGS. 7A-7C, and FIIa for FIG. 7D) is plotted on the X-axis for each of the figures.

Factor Xa = Factor Xa (Homo sapiens, UniProt P00742); assay: Clot detection in whole blood in parallel microfluidic channel device pre-coated with Factor Xa; type: biochemical; details: whole blood with unfractionated heparin, 10 minutes
Description: FIGS. 4A and 4B are fluorescent images illustrating clot detection using whole blood in a parallel microfluidic channel device 410 according to an example embodiment. Microfluidic channels 420 were pre-coated with agonist, Factor Xa, at various concentrations (7.5 ng/mL, 75 ng/mL, 750 ng/mL) or with buffer alone (negative control). The fluorescent images are taken at one time point (10 minutes). Microfluidic channels were washed with buffer prior to use to leave only bound FXa within the microfluidic channel. Fresh whole blood was placed into each input port and the blood was drawn in through capillary action. The blood was left to flow for 10 minutes and then the channel was gently washed with buffer. Depicted is a brightfield image of two samples evaluated. […] Unfractionated heparin inhibits Factors IIa and Xa in an antithrombin III-dependent fashion, which is why the addition of these factors at appropriate concentrations can help recover the clotting capability of the sample.

FXa = FXa (Homo sapiens, UniProt P00742); assay: Clotting curves: clot detection time versus FXa agonist gradient (FIGS. 7A-7C); type: biochemical
Description: as §1, §2

Chain of FXa (P00742 235-488 limits assumed): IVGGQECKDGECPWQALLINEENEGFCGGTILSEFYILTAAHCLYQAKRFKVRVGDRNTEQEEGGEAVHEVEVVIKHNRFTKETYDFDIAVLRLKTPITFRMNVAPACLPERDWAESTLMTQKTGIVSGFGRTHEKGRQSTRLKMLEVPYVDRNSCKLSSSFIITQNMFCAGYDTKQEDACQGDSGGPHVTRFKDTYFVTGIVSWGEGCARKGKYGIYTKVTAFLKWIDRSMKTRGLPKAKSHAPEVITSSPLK
Chain of FXa (P00742 41-179 partner limits assumed): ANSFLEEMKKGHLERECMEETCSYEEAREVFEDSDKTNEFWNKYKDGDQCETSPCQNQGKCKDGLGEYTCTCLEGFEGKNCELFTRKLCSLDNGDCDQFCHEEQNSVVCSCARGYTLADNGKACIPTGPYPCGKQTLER
Chain of Factor Xa (P00742 235-488 limits assumed): as the sequence (P00742 235-488 limits assumed) above
Chain of Factor Xa (P00742 41-179 partner limits assumed): as the sequence (P00742 41-179 partner limits assumed) above

Compound: Dabigatran
clot formation detected (time) (FIIa; 250 ng/mL Dabigatran, agonist (FIIa) concentration down to 710 ng/mL): < 2.5 min
clot formation detected (time) (FIIa; 500 ng/mL Dabigatran, agonist (FIIa) down to 710 ng/mL): < 2.5 min
clot formation detected (time) (FIIa; < 25 ng/mL Dabigatran, agonist (FIIa) concentration down to 71 ng/mL): < 2.5 min

clot formation (Factor Xa; negative control channel (buffer alone, no FXa)): minimal clot formation
Compound: unfractionated heparin
clot formation (Factor Xa; channels coated with 7.5, 75, 750 ng/mL FXa): gradient of clot formation dependent on the concentration of FXa in the channel

Compound: O=C(NC[C@H]1CN(c2ccc(N3CCOCC3=O)cc2)C(=O)O1)c1ccc(Cl)s1 [Rivaroxaban]
clot formation time (FXa; 250 ng/mL Rivaroxaban, agonist (FXa) concentration down to 375 ng/mL): significantly longer than the negative control but lower than 500 ng/mL
clot formation detected (time) (FXa; 500 ng/mL Rivaroxaban, agonist (FXa) down to 750 ng/mL): < 2.5 min
